The results in this text go back to patent publication US10844091B2 (priority 2017, dated 2020).

Non-standard residues stand in square brackets, D forms with d.

Holding throughout (format): in vivo
One assay concerns serotonin. The assay is described as follows: Serotonin level in the brain of rat models with Alzheimer's disease. As to conditions: donepezil 1 mg/kg, tetrapeptide 0.1 mg/kg. The method, then: (§1) The drugs were administered daily, once a day.
M. I. Prokhorova, Leningrad, pub.

The next assay deals with acetylcholine. Nature of the assay: Acetylcholine content in the brain homogenate of rat models with Alzheimer's disease. As to conditions: compared to the control, pathology and donepezil groups, p<0.05. The method, then: as §1
1966, t. […] M. I. Prokhorova, Leningrad, pub. House LSU, 1982.—pp. 256-258].

Assay [1] in a line: Arteriovenous glucose difference in rat models with Alzheimer's disease. As to conditions: tetrapeptide 0.1 mg/kg; as a trend. The method, then: as §1
The OF and EE tests were conducted on the 1st day, PST—on the 2nd day, CPAR—on the 1st and 10th day post treatment with the preparations. The CPAR proficiency criterium—remaining in the light area of the CPAR device during at least 180 sec. The antiamnesic action (AA) in the CPAR test was calculated using Butler's formula [K. S. Radionova. Original nootropic preparation Noopept ameliorates memory loss caused by the M- and N-choline receptor blockade in rats/K. S. Radionova, A. P. Bel'nik, R. U. Ostrovskaya//Bul experim. Biology and Medicine.—2008.—T.146, No 1.—pp 65-68]. After that, the animals were removed from the experiment by administering a narcotic, followed by decapitation. The brain was extracted and weighed, and the brain weight coefficient (BWC) was calculated. […] Glucose levels in whole arterial (common carotid artery) and venous (venous cerebral sinus) blood were determined by the glucose oxidase test, the difference in the arterial-venous glucose content was calculated (glucose consumption marker). The levels of average weight molecules—the toxic products of cell biodegradation damaged during the disease (nucleoside derivatives, peptoids, glucuronic acid salts, etc.) in the blood serum (AWM) were calculated [A. N. Kovalevsky. […]

Regarding “acetyl-D-Lys-Lys-Arg-Arg-amide (Ac-[dK]KRR-NH2; SMILES CC(=O)N[C@H](CCCCN)C(=O)N[C@@H](CCCCN)C(=O)N[C@@H](CCCNC(=N)N)C(=O)N[C@@H](CCCNC(=N)N)C(N)=O) [tetrapeptide (LYS), peptide acetyl-X-ARG-ARG-amide, X = D- and L-amino acid residues of lysine]”, in the assay with serotonin, the “reduction of the serotonin level in the brain” value is reported as 23.8%. Moreover, the “content of acetylcholinesterase in the brain (FIG. 11)” value in the assay on acetylcholine is reported as “statistically significantly reduces”. The “glucose utilization in the brain” value in assay [1] is “improved glucose utilization”.
